Measured values published in patent publication US20210002712A1, “PHOSPHATIDIC ACID SENSOR” (NATIONAL UNIVERSITY CORPORATION CHIBA UNIVERSITY, priority 2019, published 2021).

Key:
[1] = Lipid overlay assay, PA versus LPA and C1P; assay type: binding; conditions: GST-tagged protein 20 nM; 300 pmol lipids
Protocol: FIG. 11. Equimolar amounts (300 pmol) of 18:1/18:1-PA, 18:1-LPA, and d18:1/18:1-C1P were spotted onto nitrocellulose membranes as indicated. The membranes were incubated with purified GST-tagged-α-Syn-N(20 nM). Lipid-bound proteins were detected by an anti-GST antibody.
(§1) FIGS. 10 and 12. The blots were scanned and quantified using ImageJ software. The PA binding activity (spot intensity) of α-Syn-N was set to 100%. Values are presented as the mean±S.D. of three independent experiments. ***P<0.005 versus PA.
Three hundred picomoles of the indicated lipids were spotted onto a nitrocellulose membrane. Membrane Lipid Strip was also used. The membranes were subjected to blocking with 1% skim milk in Tris-buffered saline, pH 7.4, for 1 h at room temperature. After blocking, 10 ml of 3% bovine serum albumin in Tris-buffered saline, pH 7.4, containing purified GST alone or GST-α-Syn-N (final concentration, 20 nM) was added to the membranes. The membranes were then incubated for 1 h at room temperature. Next, the membranes were incubated with an anti-GST antibody, followed by incubation with a peroxidase-conjugated goat anti-rabbit IgG antibody. Finally, lipid-bound proteins were visualized using an ECL Western blotting detection system. Quantitative densitometry was performed using ImageJ software.

[2] = test system: PIP5K1A; assay: Colocalization with EGFP-PIP5K1A in COS-7 cells; assay type: cell-based
Protocol: (§2) FIG. 23. Either EGFP alone or EGFP-PIP5K1A was coexpressed with either the DsRed monomer alone, DsRed monomer α-Syn-N or DsRed monomer PLCδ1-PHD in COS-7 cells as indicated. After 24 h of transfection, the cells were fixed and imaged. Representative data from three independent experiments are shown. Scale bars, 20 μm.
FIG. 24. The localization of EGFP-PIP5K1A, DsRed monomer-α-Syn-N and DsRed monomer-PLCδ1-PHD was quantified using ImageJ software.
(§3) COS-7 cells were maintained in Dulbecco's modified Eagle's medium supplemented with 10% fetal bovine serum, 100 units/ml penicillin, and 100 μg/ml streptomycin at 37° C. in an atmosphere containing 5% CO2. Cells were transiently transfected using PolyFect reagent as described by the manufacturer.
(§4) The cells were then fixed in 4% paraformaldehyde. The coverslips were mounted using Vectashield. […] Images were acquired using FV-10 ASW software.

[3] = Liposome cosedimentation assay, other PA molecular species; assay type: binding; conditions: protein 2.5 μM; PA 150 μM
Protocol: (§5) FIG. 3. The purified SUMO-tagged-α-Syn-N protein (2.5 μM) was incubated with control (PC and Chol alone), 16:0/16:0-PA, 16:0/18:1-PA, 18:1/18:1-PA, or 18:0/18:0-PA liposomes (PA: 150 μM) and then separated by ultracentrifugation. SDS-PAGE (15%) was performed and separated proteins were stained with Coomassie Brilliant Blue. The position of α-Syn-N is indicated with an arrow head.
(§6) FIG. 4. The amounts of protein in the supernatant (S) and precipitant (P) were quantified by densitometry using ImageJ software. Binding activity was calculated as the percentage of the precipitate band intensity compared to the total band intensities. Values are presented as the mean±S.D. of three independent experiments. #P<0.05, ##P<0.01, ###P<0.005 versus the 18:1/18:1-PA-liposome, *P<0.05, ***P<0.005 versus the control liposome.
The following lipid mixtures were used: the control liposome: Chol (50 mol %) and 16:0/18:1-PC (50 mol %); and the PA liposome: Chol (50 mol %), 16:0/18:1-PC (35 mol %) and each PA species (15 mol %). The combined dried lipid mixture was resuspended in HEPES buffer. Then, the lipid mixture was vortexed for 1 min. Liposome formation was induced by sonication at 75° C. […] The supernatant and pellet were analyzed by SDS-PAGE followed by Coomassie Brilliant Blue and silver staining. Quantitative densitometry was performed using ImageJ software. […]

[4] = test system: EGFP-PLD2; assay: Colocalization with EGFP-PLD2 in COS-7 cells; assay type: cell-based
Protocol: FIGS. 21 and 22. […] Representative data from three independent experiments are shown. Scale bars, 20 μm.
as §3, §4

[5] = Lipid overlay assay, other lipids; assay type: binding; conditions: GST-tagged protein 20 nM; 100 pmol lipids
Excerpt: (§7) FIG. 9. Equimolar amounts (100 pmol) of various lipids were spotted onto nitrocellulose membranes as indicated. Acyl chains of these glycerolipids and sphingolipids are C16:0 (Echelon Biosciences).
as §1
(§8) FIG. 27. Equimolar amounts (500 pmol) of 18:1/18:1-PA, 18:1/18:1-PC, 18:1/18:1-PE, 18:1/18:1-PG), 18:1/18:1-PS, 18:1/18:1-PI and 18:1/18:1-PI(4,5)P2 were spotted onto nitrocellulose membranes as indicated and incubated with purified GST-tagged-α-Syn-N(20 nM). Lipid-bound proteins were detected by an anti-GST antibody.
(§9) FIG. 28. The blots were scanned and quantified using ImageJ software. The PA binding activity (spot intensity) of α-Syn-N was set to 100%. Values are presented as the mean±S.D. of three independent experiments. ***P<0.005 versus 18:1/18:1-PA.
(§10) Three hundred picomoles of the indicated lipids were spotted onto a nitrocellulose membrane. Membrane Lipid Strip was also used. The membranes were subjected to blocking with 1% skim milk in Tris-buffered saline, pH 7.4, for 1 h at room temperature. […] Quantitative densitometry was performed using ImageJ software.

[6] = Lipid overlay assay, PA spot; assay type: binding; conditions: GST-tagged protein 20 nM; 16:0/16:0-glycerolipids, 100 pmol
Excerpt: as §7, §1, §8, §9, §10

[7] = test system: EGFP-DGKγ; assay: Colocalization with EGFP-DGKγ in PMA-stimulated COS-7 cells; assay type: cell-based; conditions: 1 μM PMA 30 min
Protocol: FIGS. 19 and 20. […] Representative data from three independent experiments are shown. Scale bars, 20 μm. FIG. 20.
as §3, §4

[8] = Liposome cosedimentation assay, 18:1/18:1-PA liposomes; assay type: binding; conditions: for PA-binding activity (18:1/18:1-PA liposomes): 6×His-SUMO-tagged protein 2.5 μM, PA 150 μM
Protocol: FIG. 1. A schematic architecture of α-Syn and its deletion mutants. FIG. 2. The purified SUMO-tagged-α-Syn and its deletion mutant protein (2.5 μM) were incubated with 18:1/18:1-PA or 18:1/18:1-PS liposomes (PA or […]: 150 μM) and then separated by ultracentrifugation. SDS-PAGE (15%) was performed and separated proteins were stained with Coomassie Brilliant Blue. The positions of α-Syn and its mutants are indicated with arrow heads. The amounts of protein in the supernatant (S) and precipitant (P) were quantified by densitometry using ImageJ software. Binding activity was calculated as the percentage of the precipitate band intensity compared to the total band intensities. Values are presented as the mean±S.D. of four independent experiments. **P<0.01 versus the 18:1/18:1-PS liposome.
as §5, §6
(§11) FIG. 5. The purified SUMO-tagged-α-Syn protein (0.1 μM) was incubated with 18:1/18:1-PA liposomes of the indicated concentrations (0-20 μM) and then separated by ultracentrifugation. SDS-PAGE (15%) was performed and separated proteins were detected with silver staining. The position of α-Syn-N is indicated with an arrow head.
FIG. 6. The amounts of protein in the precipitant were quantified by densitometry using ImageJ software. Binding activity was calculated as the percentage of the precipitate band intensity compared to the total band intensities (Input). Values are presented as the mean±S.D. of four independent experiments. The Kd was determined using GraphPad Prism 8 (Dissociation-One phase exponential decay).
as §11, with “7.” for “5.”, “18:1/18:1-PA, 18:1/18:1-PS, 18:1/18:1-PI(4,5)P2, 18:1/18:1-PE and d18:1/18:1-C1P” for “18:1/18:1-PA”, “(20” for “of the indicated concentrations (0-20”, “(15%) analysis” for “(15%)”
(§12) FIG. 8. The amounts of protein in the precipitant were quantified by densitometry using ImageJ software. The PA binding activity of α-Syn-N was set to 100%. Values are presented as the mean±S.D. of three independent experiments. ***P<0.005 versus 18:1/18:1-PA liposome.
(§13) The following lipid mixtures were used: the control liposome: Chol (50 mol %) and 16:0/18:1-PC (50 mol %); and the PA liposome: Chol (50 mol %), 16:0/18:1-PC (35 mol %) and each PA species (15 mol %). The combined dried lipid mixture was resuspended in HEPES buffer. Then, the lipid mixture was vortexed for 1 min. Liposome formation was induced by sonication at 75° C. The purified SUMO-tagged α-Syn and its deletion mutants (2.5 μM) were dissolved in HEPES buffer and incubated with the control or PA-containing liposomes at room temperature for 1 h. Then, the samples were centrifuged at 200,000 g at 4° C. for 1 h. The precipitant was dissolved in HEPES buffer. The supernatant and pellet were analyzed by SDS-PAGE followed by Coomassie Brilliant Blue and silver staining. Quantitative densitometry was performed using ImageJ software. Since the lipid forms a bilayer, half of the actual concentration was considered.

[9] = Liposome cosedimentation assay, PI(4,5)P2 liposomes; assay type: binding; conditions: protein 0.1 μM; liposomes 20 μM
Protocol: as §11, with “7.” for “5.”, “18:1/18:1-PA, 18:1/18:1-PS, 18:1/18:1-PI(4,5)P2, 18:1/18:1-PE and d18:1/18:1-C1P” for “18:1/18:1-PA”, “(20” for “of the indicated concentrations (0-20”, “(15%) analysis” for “(15%)”
as §12
as §13, with “Then, the samples were centrifuged at 200,000 g at 4° C. for 1 h. The precipitant was dissolved in HEPES buffer.” left out, “Since the lipid forms a bilayer, half of the actual concentration was considered.” left out

[10] = test system: EGFP-DGKβ; assay: Colocalization with EGFP-DGKβ in COS-7 cells; assay type: cell-based; conditions: 24 h after transfection
Protocol: (§14) FIGS. 13 to 16. […] After 24 h of transfection, the cells were fixed and imaged. Representative data from three independent experiments are shown. Scale bars, 20 μm.
FIG. 14. […] FIG. 15. EGFP-DGKβ-WT was coexpressed with DsRed monomer-α-Syn-N in COS-7 cells. […] Representative data from three independent experiments are shown. Scale bars, 20 μm.
as §2, with “29.” for “23.”, “EGFP-DGKβ” for “EGFP-PIP5K1A”, “with” for “with either”, “monomer-Spo20p-PABD” for “monomer α-Syn-N”, “monomer-PDE4A1-PABD” for “monomer PLCδ1-PHD”
as §3, §4

[11] = test system: COS-7 cells; assay: Subcellular localization of the sensor without PA-generating enzyme in COS-7 cells; assay type: cell-based; conditions: absence of PA-generating enzyme
Protocol: as §14
as §2, with “29.” for “23.”, “EGFP-DGKβ” for “EGFP-PIP5K1A”, “with” for “with either”, “monomer-Spo20p-PABD” for “monomer α-Syn-N”, “monomer-PDE4A1-PABD” for “monomer PLCδ1-PHD”
as §3, §4

[12] = Liposome cosedimentation assay, PE and C1P liposomes; assay type: binding; conditions: protein 0.1 μM; liposomes 20 μM
Protocol: as §11, with “7.” for “5.”, “18:1/18:1-PA, 18:1/18:1-PS, 18:1/18:1-PI(4,5)P2, 18:1/18:1-PE and d18:1/18:1-C1P” for “18:1/18:1-PA”, “(20” for “of the indicated concentrations (0-20”, “(15%) analysis” for “(15%)”
as §12
as §13, with “Then, the samples were centrifuged at 200,000 g at 4° C. for 1 h. The precipitant was dissolved in HEPES buffer.” left out, “Since the lipid forms a bilayer, half of the actual concentration was considered.” left out

[13] = test system: Myr-AcGFP-DGKζ; assay: Colocalization with Myr-AcGFP-DGKζ in COS-7 cells; assay type: cell-based; conditions: trans Golgi network and plasma membrane
Protocol: FIG. 17. […] After 24 h of transfection, the cells were fixed and imaged. Representative data from three independent experiments are shown. Scale bars, 20 μm.
FIGS. 32 and 33. Either Myr-AcGFP-DGKζ alone or Myr-AcGFP-DGKζ-KD was coexpressed with the DsRed monomer alone or DsRed monomer-Spo20p-PABD in COS-7 cells as indicated. After 24 h of transfection, the cells were fixed and imaged. Representative data from three independent experiments are shown. Scale bars, 20 μm.
as §3, §4

[14] = Liposome cosedimentation assay, PS liposomes; assay type: binding; conditions: protein 0.1 μM; liposomes 20 μM
Protocol: as §11, with “7.” for “5.”, “18:1/18:1-PA, 18:1/18:1-PS, 18:1/18:1-PI(4,5)P2, 18:1/18:1-PE and d18:1/18:1-C1P” for “18:1/18:1-PA”, “(20” for “of the indicated concentrations (0-20”, “(15%) analysis” for “(15%)”
as §12
as §13, with “Then, the samples were centrifuged at 200,000 g at 4° C. for 1 h. The precipitant was dissolved in HEPES buffer.” left out, “Since the lipid forms a bilayer, half of the actual concentration was considered.” left out

[15] = molecular target: PLD2 (Homo sapiens, UniProt O14939); conditions: COS-7 cells, 750 nM for 4 h
Chain of PLD2 (O14939 whole entry): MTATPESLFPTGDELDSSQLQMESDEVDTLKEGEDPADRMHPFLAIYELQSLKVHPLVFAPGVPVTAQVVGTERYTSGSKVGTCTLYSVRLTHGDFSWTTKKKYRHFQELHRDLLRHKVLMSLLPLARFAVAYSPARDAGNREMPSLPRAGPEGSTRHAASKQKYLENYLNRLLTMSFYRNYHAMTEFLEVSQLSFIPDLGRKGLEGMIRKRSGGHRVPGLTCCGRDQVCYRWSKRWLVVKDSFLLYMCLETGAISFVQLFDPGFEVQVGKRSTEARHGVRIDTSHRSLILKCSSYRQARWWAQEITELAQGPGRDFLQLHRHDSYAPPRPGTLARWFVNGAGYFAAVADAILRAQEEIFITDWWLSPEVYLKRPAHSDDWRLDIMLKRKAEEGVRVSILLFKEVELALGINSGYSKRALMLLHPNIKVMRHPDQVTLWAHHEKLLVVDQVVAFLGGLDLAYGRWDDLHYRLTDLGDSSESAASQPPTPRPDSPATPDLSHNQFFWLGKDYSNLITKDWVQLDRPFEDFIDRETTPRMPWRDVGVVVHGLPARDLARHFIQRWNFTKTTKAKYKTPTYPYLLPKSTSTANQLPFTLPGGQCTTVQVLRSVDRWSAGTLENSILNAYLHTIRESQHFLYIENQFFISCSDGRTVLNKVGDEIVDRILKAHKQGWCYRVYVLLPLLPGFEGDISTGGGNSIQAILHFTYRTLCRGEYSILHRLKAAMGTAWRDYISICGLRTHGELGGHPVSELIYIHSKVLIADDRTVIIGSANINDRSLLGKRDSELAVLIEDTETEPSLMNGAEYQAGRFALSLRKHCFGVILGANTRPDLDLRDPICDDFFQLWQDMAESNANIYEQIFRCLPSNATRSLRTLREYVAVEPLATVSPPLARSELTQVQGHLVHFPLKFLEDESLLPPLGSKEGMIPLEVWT
Protocol: EGFP-PLD2 was coexpressed with either the DsRed monomer alone or DsRed monomer α-Syn-N in COS-7 cells as indicated. After 24 h of transfection, the cells were incubated with 750 nM FIPI in growth medium for 4 h and then fixed and imaged. […] The localization of EGFP-PLD2-WT and DsRed monomer α-Syn-N was quantified using ImageJ software. COS-7 cells were grown and transfected as described in the above section. […] The cells were then fixed in 4% paraformaldehyde. The coverslips were mounted using Vectashield. Fluorescence images were acquired using an Olympus FV1000-D (IX81) confocal laser scanning microscope. GFP fluorescence was excited at 488 nm, and DsRed fluorescence was excited at 543 nm. Images were acquired using FV-10 ASW software.

Compound	binding of PA relative to LPA and C1P [1]	colocalization with EGFP-PIP5K1A [2]	binding to 16:0/16:0- and 16:0/18:1-PA liposomes [3]	colocalization with EGFP-PLD2 [4]	binding to other lipid spots [5]	binding to PA spot [6]	colocalization with EGFP-DGKγ at the plasma membrane [7]	PA-binding activity (18:1/18:1-PA liposomes) [8]	Kd ([8]; protein 0.1 μM, 18:1/18:1-PA liposomes 0-20 μM, read-out: dissociation constant (Kd) for PA (18:1/18:1-PA))	binding to 18:1/18:1-PA liposomes compared with other acidic glycerolipids ([8]; protein 0.1 μM, liposomes 20 μM)	binding to PI(4,5)P2 liposomes [9]	colocalization with EGFP-DGKβ [10]	subcellular localization [11]	binding to PE or C1P liposomes [12]	colocalization with Myr-AcGFP-DGKζ [13]	binding to PS liposomes [14]	effect on colocalization of EGFP-PLD2 and DsRed-α-Syn-N [15]
α-Syn-N: N-terminal region of mouse α-synuclein (Met1-Lys60), SEQ ID NO: 2; used 6×His-SUMO-, GST- or DsRed monomer-tagged	significantly stronger binding	did not codistribute	considerably interacted	clearly colocalized	only weak or no signals were detected	most strongly bound	markedly colocalized	most strongly bound	6.6 µM	most strongly bound	only weak signals were detected	clearly colocalized	broad distribution in the cytoplasm and the nucleus	did not substantially interact	markedly colocalized	no signals were observed	
O=C(NCCN1CCC(n2c(=O)[nH]c3ccccc32)CC1)c1cc2cc(F)ccc2[nH]1 [FIPI, 5-fluoro-2-indolyl deschlorohalopemide]																	markedly attenuated their colocalization
α-Syn-NAC: non-amyloid-β-component deletion mutant of α-Syn (Glu61-Val95), 6×His-SUMO-tagged								failed to show substantial PA-binding activity									
